The source of these data is patent publication US20240270762A1, “PENICILLIN-BINDING PROTEIN INHIBITORS” (priority 2021, published 2024).

One test concerns E. coli D22. As to the kind of experiment: microbe, parasite or virus in culture. As to conditions: Escherichia coli, D22, read-out: MIC E. coli D22. In kind it is cell-based.
A further test relates to N. gonorrhoeae FA1090. As to the kind of experiment: Liquid broth MIC in Fastidious broth. As to conditions: Neisseria gonorrhoeae, FA1090, read-out: Minimum Inhibitory Concentration (MIC), N. gonorrhoeae FA 1090.
Another test relates to N. gonorrhoeae MS11. The test can be described thus: Liquid broth MIC in Fastidious broth. The following applies: Neisseria gonorrhoeae, MS11, read-out: Minimum Inhibitory Concentration (MIC), N. gonorrhoeae MS11.
Another test concerns N. gonorrhoeae WHO L. As to the kind of experiment: Liquid broth MIC in Fastidious broth. The following applies: Neisseria gonorrhoeae, read-out: Minimum Inhibitory Concentration (MIC), N. gonorrhoeae WHO L.
A further test relates to N. gonorrhoeae WHO M. As to the kind of experiment: Liquid broth MIC in Fastidious broth. As to conditions: Neisseria gonorrhoeae, read-out: Minimum Inhibitory Concentration (MIC), N. gonorrhoeae WHO M.
The next test relates to N. gonorrhoeae WHO K. As to the kind of experiment: Liquid broth MIC in Fastidious broth. The following applies: Neisseria gonorrhoeae, read-out: Minimum Inhibitory Concentration (MIC), N. gonorrhoeae WHO K.
The test system of the next test is N. gonorrhoeae WHO Q. The test can be described thus: Liquid broth MIC in Fastidious broth. As to conditions: Neisseria gonorrhoeae, read-out: Minimum Inhibitory Concentration (MIC), N. gonorrhoeae WHO Q.
The next test has as its system N. gonorrhoeae CDC-0197. As to the kind of experiment: Liquid broth MIC in Fastidious broth. The following applies: Neisseria gonorrhoeae, CDC0197, read-out: Minimum Inhibitory Concentration (MIC), N. gonorrhoeae CDC-0197.

Structures are written as SMILES. In brackets after ≈: the same amount, converted by molar mass. Where only a bound is given, the exact number is not on record here.

Protocol for N. gonorrhoeae WHO Q: Liquid broth-based assays were used for antibacterial testing of PBP inhibitors in Neisseria gonorrhoeae. Briefly, cryo-preserved bacterial cultures of clinical strains were streaked for isolation on Chocolate Agar (72 g/L (2×) GC Agar Base (BD #228950) and 2% (2×) Hemoglobin was autoclaved at 121° C. for 20 minutes to sterilize. Once cooled to ˜50° C. the 2×GC Agar Base and 2× Hemoglobin solutions are combined and 1% IsoVitaleX Enrichment (BD #211876) was added to the solution). Strains were incubated at 36° C. and 5% CO2 to allow growth of colonies, 24 hours before inoculum preparation. 2-fold serial dilutions of test compounds were conducted in a 96 well plate with a final volume of 75 μL per well at 2-fold the final desired concentration in Fastidious broth (Remel #R07664). For preparation of assay inoculum, a direct suspension was prepared by aseptically swabbing 10-15 colonies from agar plates into culture tubes containing 2 mL of fresh sterile saline. After the dilution plates were set up, direct suspensions were then diluted in a cuvette containing sterile saline and the optical density was measured at 600 nm. Inocula were diluted such that 75 μL of this culture in Fastidious broth results in a starting bacterial concentration of 5×10^5 CFU/mL when added to the dilution plates. The plates were incubated for ˜24 hours at 36° C. and 5% CO2.

On to `CS(=O)(=O)N1CCN(C(=O)N[C@H](C(=O)N[C@H]2Cc3cccc(C(=O)O)c3OB2O)c2ccc(P(=O)(O)O)cc2)C1=O` (single isomer, unassigned) [Example 5], for which the MIC is 8 to 16 µg/mL (≈ 13.1 to 26.2 µM) in the test on E. coli D22; less than 1 µg/mL in the test with N. gonorrhoeae FA1090; less than 1 µg/mL in the test on N. gonorrhoeae MS11; 4 to 8 µg/mL (≈ 6.55 to 13.1 µM) in the test with N. gonorrhoeae WHO L; less than 1 µg/mL in the test on N. gonorrhoeae WHO M; 1 to 2 µg/mL (≈ 1.64 to 3.28 µM) in the test on N. gonorrhoeae WHO K. The MIC in the test on N. gonorrhoeae WHO Q and in the test on N. gonorrhoeae CDC-0197 was less than 1 µg/mL each time.

For the compound `CS(=O)(=O)N1CCN(C(=O)N[C@@H](C(=O)N[C@H]2Cc3cccc(C(=O)O)c3OB2O)c2ccc(P(=O)(O)O)cc2)C1=O` (single isomer, unassigned) [Example 6], the MIC in the test with E. coli D22 was 2 to 4 µg/mL (≈ 3.28 to 6.55 µM); with N. gonorrhoeae FA1090, less than 1 µg/mL; in the test on N. gonorrhoeae MS11 it was less than 1 µg/mL; with N. gonorrhoeae WHO L it was less than 1 µg/mL; with N. gonorrhoeae WHO M, less than 1 µg/mL; in the test on N. gonorrhoeae WHO K it was less than 1 µg/mL. The MIC in the test with N. gonorrhoeae WHO Q and in the test on N. gonorrhoeae CDC-0197 was less than 1 µg/mL throughout.

Take `CCN1CCN(C(=O)NC(C(=O)N[C@H]2Cc3cccc(C(=O)O)c3OB2O)c2ccc(P(=O)(O)O)cc2F)C(=O)C1=O` (stereo partly drawn) [Example 1, (3R)-3-(2-(4-ethyl-2,3-dioxopiperazine-1-carboxamido)-2-(2-fluoro-4-phosphonophenyl)acetamido)-2-hydroxy-3,4-dihydro-2H-benzo[e][1,2]oxaborinine-8-carboxylic acid]: the MIC was 2 to 4 µg/mL (≈ 3.3 to 6.6 µM) with E. coli D22; less than 1 µg/mL in the test on N. gonorrhoeae FA1090; less than 1 µg/mL in the test with N. gonorrhoeae MS11; 1 to 2 µg/mL (≈ 1.65 to 3.3 µM) in the test with N. gonorrhoeae WHO L; less than 1 µg/mL in the test on N. gonorrhoeae WHO M; less than 1 µg/mL in the test on N. gonorrhoeae WHO K. Moreover, the MIC with N. gonorrhoeae WHO Q and with N. gonorrhoeae CDC-0197 was less than 1 µg/mL each time.

With `CCN1CCN(C(=O)NC(C(=O)N[C@H]2Cc3cccc(C(=O)O)c3OB2O)c2cc(P(=O)(O)O)ccc2F)C(=O)C1=O` (stereo partly drawn) [Example 2, (3R)-3-(2-(4-ethyl-2,3-dioxopiperazine-1-carboxamido)-2-(2-fluoro-5-phosphonophenyl)acetamido)-2-hydroxy-3,4-dihydro-2H-benzo[e][1,2]oxaborinine-8-carboxylic acid], the MIC in the test on E. coli D22 is 2 to 4 µg/mL (≈ 3.3 to 6.6 µM); in the test on N. gonorrhoeae FA1090 it was less than 1 µg/mL; in the test on N. gonorrhoeae MS11, 4 to 8 µg/mL (≈ 6.6 to 13.2 µM); with N. gonorrhoeae WHO L, greater than 64 µg/mL; in the test on N. gonorrhoeae WHO M, 4 to 8 µg/mL (≈ 6.6 to 13.2 µM); with N. gonorrhoeae WHO K, 16 to 32 µg/mL (≈ 26.4 to 52.8 µM). Also, the MIC in the test on N. gonorrhoeae WHO Q and in the test on N. gonorrhoeae CDC-0197 was 4 to 8 µg/mL (≈ 6.6 to 13.2 µM) in each case.

As for `NCCN1CCN(C(=O)NC(C(=O)N[C@H]2Cc3cccc(C(=O)O)c3OB2O)c2ccc(P(=O)(O)O)cc2)C(=O)C1=O` (stereo partly drawn) [Example 3, (3R)-3-(2-(4-(2-aminoethyl)-2,3-dioxopiperazine-1-carboxamido)-2-(4-phosphonophenyl)acetamido)-2-hydroxy-3,4-dihydro-2H-benzo[e][1,2]oxaborinine-8-carboxylic acid], the MIC is 8 to 16 µg/mL (≈ 13.3 to 26.5 µM) in the test on E. coli D22; less than 1 µg/mL in the test on N. gonorrhoeae FA1090; 1 to 2 µg/mL (≈ 1.66 to 3.32 µM) in the test on N. gonorrhoeae MS11; 4 to 8 µg/mL (≈ 6.63 to 13.3 µM) in the test with N. gonorrhoeae WHO L; less than 1 µg/mL in the test on N. gonorrhoeae WHO M; 4 to 8 µg/mL (≈ 6.63 to 13.3 µM) with N. gonorrhoeae WHO K. The MIC in the test on N. gonorrhoeae WHO Q and in the test with N. gonorrhoeae CDC-0197 was 1 to 2 µg/mL (≈ 1.66 to 3.32 µM) throughout.
